Legend:
[1] = tested on: nosebleeds; experiment: Stanching nosebleeds at higher CGP levels; type: in vivo; details: higher levels tested, about 7.5% (w/w) or above
[2] = tested on: human subject having asthma; experiment: Application of CGP composition to a human subject having asthma; type: in vivo
Description: A CGP composition similar to that described in Example 3, containing about 2% (w/w) CGP, was used in this study. A second human subject, a person having a life history of asthma, participated in this study.
The subject intentionally stopped using Advair Diskus (steroid) for about 2 weeks. Their allergies to molds were triggered by a ‘musty’ indoor environment resulting from several rainy and humid days. The allergies in turn triggered their asthma. The subject had felt a slight reduction in their airflow capacity for a few days, but had withheld use of albuterol inhaler (asthma rescue medication) during the day and only used it for severe wake-ups during the night. The subject had to use albuterol inhaler for three contiguous nights prior to the night described below.
In that night, at about 8:30 PM, the subject was experiencing difficulty breathing and wheezing, which signaled the start of an asthma attack. At about 8:35 PM, the subject applied two sprays of the CGP composition into each nostril and one spray of the CGP composition into their mouth for inhalation. An average spray delivery contained about 200 mg of the composition. […] At about 8:52 PM, the subject did two additional oral inhalations of the composition. At about 8:55 PM, the subject noticed that their wheeze and tightness in chest were relieved about 80% or more. All nasal drips had been sniffed back in. At about 8:58 PM, the subject perceived a gradual improvement and experienced no labor in breathing. At about 9:05 PM, the subject felt better, but desired full relief and wanted to increase breathing capacity. They applied one inhalation of the composition into each nostril; paused to get full breath, then applied two deep oral inhalations of the composition at about 9:07 PM. At about 9:27 PM, the subject felt fine and substantially back to normal. At about 9:37 PM, the subject felt improved. At about 10:16 PM, the subject felt fully (100%) recovered. At about 11:00 PM, the subject felt fine, no worry, and went to bed. […] At about 8:00 AM the next day, the subject felt a little tightness in chest. Instead of using 2 puffs of albuterol to start the day as they normally did, the subject used the CGP composition. They applied two sprays of the composition into each nostril and two sprays of the composition into their mouth for inhalation.

Substance: calcium glycerophosphate
- stanching nosebleeds [1]: may help in stanching nosebleeds
- relief of tightness in chest next morning ([2]; about 8:00 AM next day, two sprays each nostril and two sprays into mouth instead of albuterol): felt relief and no need to use the albuterol inhaler
- relief at start of an asthma attack ([2]; about 8:40 PM, 5 min after first sprays, composition about 2% (w/w) CGP, one subject): mild relief
- wheeze and tightness in chest relieved ([2]; about 8:55 PM, after nasal sprays and oral inhalations from 8:35 PM, about 2% (w/w) CGP): ≥ 80%
- subject felt recovered ([2]; about 10:16 PM, first application 8:35 PM, about 2% (w/w) CGP): 100%
- night wake-up and inhaler use ([2]; night after the treated attack): no wake-up with shortness of breath and did not use inhaler during the night

From patent publication US9861647B2 (Prelief Inc., priority 2007, dated 2018)
